# Reference: patent US8802895B2, “Amide derivatives of benzene-sulfonanilide, pharmaceutical composition thereof and method for cancer treatment using the same” (Cleveland State University, priority 2010, dated 2014)
# How the values were obtained:
# Assay type in all cases: cell-based
# NCI-H460 = test: NCIDTP 60 cancer cell lines screening, Non-Small Cell Lung Cancer panel
# HCC-2998 = test: NCIDTP 60 cancer cell lines screening, Colon Cancer panel
# HCT-15 = test: as above
# SW-620 = test: as above
# SF-295 = test: NCIDTP 60 cancer cell lines screening, CNS Cancer panel
# SNB-19 = test: as above
# U251 = test: as above
# MDA-MB-435 = test: NCIDTP 60 cancer cell lines screening, Melanoma panel
# SK-MEL-2 = test: as above
# IGROV1 = test: NCIDTP 60 cancer cell lines screening, Ovarian Cancer panel
# OVCAR-3 = test: as above
# CAKI-1 = test: NCIDTP 60 cancer cell lines screening, Renal Cancer panel
# RXF 393 = test: as above
# SN12C = test: as above
# TK-10 = test: as above
# DU-145 = test: NCIDTP 60 cancer cell lines screening, Prostate Cancer panel
# MCF7 = test: NCIDTP 60 cancer cell lines screening, Breast Cancer panel
smiles,measurement,setting,value
"Cc1ccc(C)c(COc2cc(NC(=O)c3ccc4c(c3)OCO4)ccc2N(C)S(C)(=O)=O)c1 [Compound #10, Benzo[1,3]dioxole-5-carboxylic acid [3-(2,5-dimethyl-benzyloxy)-4-(methanesulfonyl-methyl-amino)-phenyl]-amide]",GI50,"NCI-H460; Homo sapiens, NCI-H460",184 nM
same,CC50,"NCI-H460; Homo sapiens, NCI-H460, read-out: LC50",> 100000 nM
same,TGI,NCI-H460; NCI-H460,7.44E−7 Molar
same,Percent Growth,"NCI-H460; NCI-H460, Log10 Concentration −4.0 Molar",−24%
same,Percent Growth,"NCI-H460; NCI-H460, Log10 Concentration −5.0 Molar",−10%
same,Percent Growth,"NCI-H460; NCI-H460, Log10 Concentration −6.0 Molar",−11%
same,Percent Growth,"NCI-H460; NCI-H460, Log10 Concentration −7.0 Molar",72%
same,Percent Growth,"NCI-H460; NCI-H460, Log10 Concentration −8.0 Molar",95%
same,TGI,HCC-2998; HCC-2998,3.92E−7 Molar
same,Percent Growth,"HCC-2998; HCC-2998, Log10 Concentration −4.0 Molar",−64%
same,Percent Growth,"HCC-2998; HCC-2998, Log10 Concentration −5.0 Molar",−61%
same,Percent Growth,"HCC-2998; HCC-2998, Log10 Concentration −6.0 Molar",−40%
same,Percent Growth,"HCC-2998; HCC-2998, Log10 Concentration −7.0 Molar",58%
same,Percent Growth,"HCC-2998; HCC-2998, Log10 Concentration −8.0 Molar",99%
same,CC50,"HCC-2998; Homo sapiens, HCC 2998, read-out: LC50",2970 nM
same,GI50,"HCC-2998; Homo sapiens, HCC-2998",120 nM
same,TGI,HCT-15; HCT-15,>1.00E−4 Molar
same,Percent Growth,"HCT-15; HCT-15, Log10 Concentration −4.0 Molar",17%
same,Percent Growth,"HCT-15; HCT-15, Log10 Concentration −5.0 Molar",17%
same,Percent Growth,"HCT-15; HCT-15, Log10 Concentration −6.0 Molar",22%
same,Percent Growth,"HCT-15; HCT-15, Log10 Concentration −7.0 Molar",74%
same,Percent Growth,"HCT-15; HCT-15, Log10 Concentration −8.0 Molar",96%
same,GI50,"HCT-15; Homo sapiens, HCT-15",289 nM
same,CC50,"HCT-15; Homo sapiens, HCT-15, read-out: LC50",> 100000 nM
same,GI50,"SW-620; Homo sapiens, SW-620",112 nM
same,CC50,"SW-620; Homo sapiens, SW-620, read-out: LC50",> 100000 nM
same,TGI,SW-620; SW-620,>1.00E−4 Molar
same,Percent Growth,"SW-620; SW-620, Log10 Concentration −4.0 Molar",16%
same,Percent Growth,"SW-620; SW-620, Log10 Concentration −5.0 Molar",21%
same,Percent Growth,"SW-620; SW-620, Log10 Concentration −6.0 Molar",19%
same,Percent Growth,"SW-620; SW-620, Log10 Concentration −7.0 Molar",52%
same,Percent Growth,"SW-620; SW-620, Log10 Concentration −8.0 Molar",92%
same,GI50,"SF-295; Homo sapiens, SF-295",98.3 nM
same,CC50,"SF-295; Homo sapiens, SF-295, read-out: LC50",> 100000 nM
same,TGI,SF-295; SF-295,6.26E−7 Molar
same,Percent Growth,"SF-295; SF-295, Log10 Concentration −4.0 Molar",−15%
same,Percent Growth,"SF-295; SF-295, Log10 Concentration −5.0 Molar",−16%
same,Percent Growth,"SF-295; SF-295, Log10 Concentration −6.0 Molar",−13%
same,Percent Growth,"SF-295; SF-295, Log10 Concentration −7.0 Molar",50%
same,Percent Growth,"SF-295; SF-295, Log10 Concentration −8.0 Molar",92%
same,GI50,"SNB-19; Homo sapiens, SNB-19",537 nM
same,CC50,"SNB-19; Homo sapiens, SNB-19, read-out: LC50",> 100000 nM
same,TGI,SNB-19; SNB-19,>1.00E−4 Molar
same,Percent Growth,"SNB-19; SNB-19, Log10 Concentration −4.0 Molar",39%
same,Percent Growth,"SNB-19; SNB-19, Log10 Concentration −5.0 Molar",30%
same,Percent Growth,"SNB-19; SNB-19, Log10 Concentration −6.0 Molar",36%
same,Percent Growth,"SNB-19; SNB-19, Log10 Concentration −7.0 Molar",89%
same,Percent Growth,"SNB-19; SNB-19, Log10 Concentration −8.0 Molar",93%
same,CC50,"U251; Homo sapiens, U-251, read-out: LC50",> 100000 nM
same,GI50,"U251; Homo sapiens, U-251, U251",266 nM
same,TGI,U251; U251,2.19E−5 Molar
same,Percent Growth,"U251; U251, Log10 Concentration −4.0 Molar",−16%
same,Percent Growth,"U251; U251, Log10 Concentration −5.0 Molar",8%
same,Percent Growth,"U251; U251, Log10 Concentration −6.0 Molar",15%
same,Percent Growth,"U251; U251, Log10 Concentration −7.0 Molar",76%
same,Percent Growth,"U251; U251, Log10 Concentration −8.0 Molar",97%
same,GI50,"MDA-MB-435; Homo sapiens, MDA-MB-435",28.5 nM
same,CC50,"MDA-MB-435; Homo sapiens, MDA-MB-435, read-out: LC50",> 100000 nM
same,TGI,MDA-MB-435; MDA-MB-435,9.14E−8 Molar
same,Percent Growth,"MDA-MB-435; MDA-MB-435, Log10 Concentration −4.0 Molar",−17%
same,Percent Growth,"MDA-MB-435; MDA-MB-435, Log10 Concentration −5.0 Molar",−28%
same,Percent Growth,"MDA-MB-435; MDA-MB-435, Log10 Concentration −6.0 Molar",−30%
same,Percent Growth,"MDA-MB-435; MDA-MB-435, Log10 Concentration −7.0 Molar",−4%
same,Percent Growth,"MDA-MB-435; MDA-MB-435, Log10 Concentration −8.0 Molar",95%
same,GI50,"SK-MEL-2; Homo sapiens, SK-MEL-2",89.7 nM
same,CC50,"SK-MEL-2; Homo sapiens, SK-MEL-2, read-out: LC50",> 100000 nM
same,TGI,SK-MEL-2; SK-MEL-2,6.16E−7 Molar
same,Percent Growth,"SK-MEL-2; SK-MEL-2, Log10 Concentration −4.0 Molar",−18%
same,Percent Growth,"SK-MEL-2; SK-MEL-2, Log10 Concentration −5.0 Molar",−12%
same,Percent Growth,"SK-MEL-2; SK-MEL-2, Log10 Concentration −6.0 Molar",−13%
same,Percent Growth,"SK-MEL-2; SK-MEL-2, Log10 Concentration −7.0 Molar",48%
same,Percent Growth,"SK-MEL-2; SK-MEL-2, Log10 Concentration −8.0 Molar",99%
same,CC50,"IGROV1; Homo sapiens, IGROV-1, read-out: LC50",> 100000 nM
same,GI50,"IGROV1; Homo sapiens, IGROV-1, IGROV1",237 nM
same,TGI,IGROV1; IGROV1,>1.00E−4 Molar
same,Percent Growth,"IGROV1; IGROV1, Log10 Concentration −4.0 Molar",13%
same,Percent Growth,"IGROV1; IGROV1, Log10 Concentration −5.0 Molar",13%
same,Percent Growth,"IGROV1; IGROV1, Log10 Concentration −6.0 Molar",18%
same,Percent Growth,"IGROV1; IGROV1, Log10 Concentration −7.0 Molar",69%
same,Percent Growth,"IGROV1; IGROV1, Log10 Concentration −8.0 Molar",92%
same,TGI,OVCAR-3,1.66E−7 Molar
same,GI50,OVCAR-3; Homo sapiens,39.6 nM
same,Percent Growth,OVCAR-3; Log10 Concentration −4.0 Molar,−32%
same,Percent Growth,OVCAR-3; Log10 Concentration −5.0 Molar,−44%
same,Percent Growth,OVCAR-3; Log10 Concentration −6.0 Molar,−67%
same,Percent Growth,OVCAR-3; Log10 Concentration −7.0 Molar,19%
same,Percent Growth,OVCAR-3; Log10 Concentration −8.0 Molar,96%
same,TGI,CAKI-1; CAKI-1,>1.00E−4 Molar
same,Percent Growth,"CAKI-1; CAKI-1, Log10 Concentration −4.0 Molar",5%
same,Percent Growth,"CAKI-1; CAKI-1, Log10 Concentration −5.0 Molar",2%
same,Percent Growth,"CAKI-1; CAKI-1, Log10 Concentration −6.0 Molar",16%
same,Percent Growth,"CAKI-1; CAKI-1, Log10 Concentration −7.0 Molar",54%
same,Percent Growth,"CAKI-1; CAKI-1, Log10 Concentration −8.0 Molar",100%
same,GI50,"CAKI-1; Homo sapiens, CAKI-1",126 nM
same,CC50,"CAKI-1; Homo sapiens, CAKI-1, read-out: LC50",> 100000 nM
same,GI50,"RXF 393; Homo sapiens, RXF 393",128 nM
same,CC50,"RXF 393; Homo sapiens, RXF 393, read-out: LC50",> 100000 nM
same,TGI,RXF 393; RXF 393,4.03E−7 Molar
same,Percent Growth,"RXF 393; RXF 393, Log10 Concentration −4.0 Molar",−18%
same,Percent Growth,"RXF 393; RXF 393, Log10 Concentration −5.0 Molar",−20%
same,Percent Growth,"RXF 393; RXF 393, Log10 Concentration −6.0 Molar",−39%
same,Percent Growth,"RXF 393; RXF 393, Log10 Concentration −7.0 Molar",61%
same,Percent Growth,"RXF 393; RXF 393, Log10 Concentration −8.0 Molar",81%
same,TGI,SN12C,>1.00E−4 Molar
same,GI50,SN12C; Homo sapiens,472 nM
same,CC50,"SN12C; Homo sapiens, read-out: LC50",> 100000 nM
same,Percent Growth,SN12C; Log10 Concentration −4.0 Molar,23%
same,Percent Growth,SN12C; Log10 Concentration −5.0 Molar,22%
same,Percent Growth,SN12C; Log10 Concentration −6.0 Molar,30%
same,Percent Growth,SN12C; Log10 Concentration −7.0 Molar,91%
same,Percent Growth,SN12C; Log10 Concentration −8.0 Molar,96%
same,GI50,"TK-10; Homo sapiens, TK-10",354 nM
same,CC50,"TK-10; Homo sapiens, TK-10, read-out: LC50",> 100000 nM
same,TGI,TK-10; TK-10,>1.00E−4 Molar
same,Percent Growth,"TK-10; TK-10, Log10 Concentration −4.0 Molar",9%
same,Percent Growth,"TK-10; TK-10, Log10 Concentration −5.0 Molar",6%
same,Percent Growth,"TK-10; TK-10, Log10 Concentration −6.0 Molar",18%
same,Percent Growth,"TK-10; TK-10, Log10 Concentration −7.0 Molar",88%
same,Percent Growth,"TK-10; TK-10, Log10 Concentration −8.0 Molar",92%
same,TGI,DU-145; DU-145,4.57E−7 Molar
same,Percent Growth,"DU-145; DU-145, Log10 Concentration −4.0 Molar",−28%
same,Percent Growth,"DU-145; DU-145, Log10 Concentration −5.0 Molar",−39%
same,Percent Growth,"DU-145; DU-145, Log10 Concentration −6.0 Molar",−37%
same,Percent Growth,"DU-145; DU-145, Log10 Concentration −7.0 Molar",72%
same,Percent Growth,"DU-145; DU-145, Log10 Concentration −8.0 Molar",96%
same,GI50,"DU-145; Homo sapiens, DU-145",159 nM
same,CC50,"DU-145; Homo sapiens, DU-145, read-out: LC50",> 100000 nM
same,GI50,"MCF7; Homo sapiens, MCF7",120 nM
same,CC50,"MCF7; Homo sapiens, MCF7, read-out: LC50",> 100000 nM
same,TGI,MCF7; MCF7,>1.00E−4 Molar
same,Percent Growth,"MCF7; MCF7, Log10 Concentration −4.0 Molar",7%
same,Percent Growth,"MCF7; MCF7, Log10 Concentration −5.0 Molar",10%
same,Percent Growth,"MCF7; MCF7, Log10 Concentration −6.0 Molar",16%
same,Percent Growth,"MCF7; MCF7, Log10 Concentration −7.0 Molar",53%
same,Percent Growth,"MCF7; MCF7, Log10 Concentration −8.0 Molar",92%
